Laboratory results reported in patent US7776858B2, “Methods of treatment of chronic pain using eszopiclone” (Sepracor Inc., priority 2004, dated 2010).

How the values were obtained:
[1] = test system: conscious dogs; assay: Dose escalation safety study, cardiovascular and respiratory parameters after acute intravenous administration; conditions: acute intravenous, 3, 5 and 12 mg/kg
Procedure: To establish the safety of eszopiclone, a dose escalation study was carried out. Cardiovascular and respiratory parameters were evaluated in conscious dogs following acute intravenous administration of (R)-, (S)- or racemic zopiclone at three doses (3, 5 and 12 mg/kg).

[2] = test system: subjects with insomnia related to rheumatoid arthritis; assay: Arthritis Self-Efficacy Scale, clinical study of eszopiclone 3 mg vs placebo; assay type: in vivo, human
Procedure: The study was aimed at observing the effect of eszopiclone 3 mg compared to placebo on daytime function in subjects with insomnia related to rheumatoid arthritis. The study was a multicenter, randomized, double-blind, placebo controlled, parallel group study.
A total of 153 subjects were randomized. Among them, 77 received 3 mg of eszopiclone (ESZ) nightly (at bedtime) for four weeks and 76 received matching placebo (PBO). […] In addition, subjects had insomnia symptoms including wake time after sleep onset (WASO) of ≧45 minutes, and total sleep time ≦6.5 hours. Diagnosis of rheumatoid arthritis predated the onset of insomnia symptoms.
During the double blind treatment, subjects were dosed with 3 mg eszopiclone (ESZ) or matching placebo (PBO) nightly (at bedtime) for four weeks. Data was analyzed with one-sided significance tests.

[3] = 3 mg nightly, visit 5 (Week 4), ITT
[4] = 3 mg nightly, visit 5 (Week 4), ITT, ANCOVA
[5] = 3 mg nightly, visit 6 (EOS), ITT

Question: Which “Blood gases and blood chemistries (pH, pCO2, pO2, hematocrit, and lactate)” value [1] does the source give for `CN1CCN(C(=O)O[C@H]2c3nccnc3C(=O)N2c2ccc(Cl)cn2)CC1` [Eszopiclone, (+) 6-(5-chloropyrid-2-yl)-5-(4-methylpiperazin-1-yl)carbonyloxy-7-oxo-6,7-dihydro-5H-pyrrolo[3-4-b]pyrazine] here?
Answer: The value was “remained unaffected”.

Question: What about the “cardiotoxicity by electrocardiogram (ECG)” value [1] of the same molecule?
Answer: The value was “No evidence of cardiotoxicity”.

Question: And the “effect on blood pressure” value [1]?
Answer: Its value is “dose dependent, transient decreases”.

Question: And the “effect on heart rate” value [1]?
Answer: Its value is “compensatory increase”.

Question: What about the “Arthritis Self-Efficacy Scale Pain subscale analyzed alone, difference” value ([2]; 3 mg nightly vs placebo) of the same molecule?
Answer: Its value is “statistically significant difference”.

Question: What about the “Arthritis Self-Efficacy Scale Pain subscale in combination with Other Symptoms, difference” value ([2]; 3 mg nightly vs placebo) of the same molecule?
Answer: Its value is “statistically significant difference”.

Question: What about the “effect on change from baseline to end of study (Week 4) in the Overall score for the Arthritis Self-Efficacy Scale” value ([2]; 3 mg nightly vs placebo) of the same molecule?
Answer: The value was “significant effect”.

Question: What about the “Arthritis Self-Efficacy Scale Function, Change from Baseline, 25th Percentile” value [2, 3] of the same molecule?
Answer: Its value is −1.0.

Question: And the “Arthritis Self-Efficacy Scale Function, Change from Baseline, 75th Percentile” value [2, 3]?
Answer: The value was 13.5.

Question: What about the “Arthritis Self-Efficacy Scale Function, Change from Baseline, Maximum” value [2, 3] of the same molecule?
Answer: Its value is 74.0.

Question: What about the “Arthritis Self-Efficacy Scale Function, Change from Baseline, Mean (SD)” value [2, 3] of the same molecule?
Answer: The value was 4.8 (15.7).

Question: And the “Arthritis Self-Efficacy Scale Function, Change from Baseline, Median” value [2, 3]?
Answer: The value was 4.0.

Question: What about the “Arthritis Self-Efficacy Scale Function, Change from Baseline, Minimum” value [2, 3] of the same molecule?
Answer: The value was −34.0.

Question: And the “Arthritis Self-Efficacy Scale Function, Observed Value, 25th Percentile” value [2, 3]?
Answer: Its value is 45.5.

Question: And the “Arthritis Self-Efficacy Scale Function, Observed Value, 75th Percentile” value [2, 3]?
Answer: Its value is 83.5.

Question: What about the “Arthritis Self-Efficacy Scale Function, Observed Value, Maximum” value [2, 3] of the same molecule?
Answer: The value was 90.0.

Question: And the “Arthritis Self-Efficacy Scale Function, Observed Value, Mean (SD)” value [2, 3]?
Answer: The value was 62.0 (22.1).

Question: What about the “Arthritis Self-Efficacy Scale Function, Observed Value, Median” value [2, 3] of the same molecule?
Answer: Its value is 61.0.

Question: And the “Arthritis Self-Efficacy Scale Function, Observed Value, Minimum” value [2, 3]?
Answer: Its value is 13.0.

Question: And the “Arthritis Self-Efficacy Scale Other Symptoms, Change from Baseline, 25th Percentile” value [2, 3]?
Answer: Its value is −2.0.

Question: And the “Arthritis Self-Efficacy Scale Other Symptoms, Change from Baseline, 75th Percentile” value [2, 3]?
Answer: The value was 10.0.

Question: What about the “Arthritis Self-Efficacy Scale Other Symptoms, Change from Baseline, Maximum” value [2, 3] of the same molecule?
Answer: The value was 41.0.

Question: And the “Arthritis Self-Efficacy Scale Other Symptoms, Change from Baseline, Mean (SD)” value [2, 3]?
Answer: Its value is 3.5 (10.5).

Question: What about the “Arthritis Self-Efficacy Scale Other Symptoms, Change from Baseline, Median” value [2, 3] of the same molecule?
Answer: The value was 3.0.

Question: And the “Arthritis Self-Efficacy Scale Other Symptoms, Change from Baseline, Minimum” value [2, 3]?
Answer: Its value is −26.0.

Question: What about the “Arthritis Self-Efficacy Scale Other Symptoms, Observed Value, 25th Percentile” value [2, 3] of the same molecule?
Answer: Its value is 31.5.

Question: What about the “Arthritis Self-Efficacy Scale Other Symptoms, Observed Value, 75th Percentile” value [2, 3] of the same molecule?
Answer: The value was 50.0.

Question: And the “Arthritis Self-Efficacy Scale Other Symptoms, Observed Value, Maximum” value [2, 3]?
Answer: The value was 59.0.

Question: What about the “Arthritis Self-Efficacy Scale Other Symptoms, Observed Value, Mean (SD)” value [2, 3] of the same molecule?
Answer: Its value is 39.3 (12.7).

Question: And the “Arthritis Self-Efficacy Scale Other Symptoms, Observed Value, Median” value [2, 3]?
Answer: The value was 40.0.

Question: And the “Arthritis Self-Efficacy Scale Other Symptoms, Observed Value, Minimum” value [2, 3]?
Answer: Its value is 6.0.

Question: What about the “Arthritis Self-Efficacy Scale Overall, Change from Baseline, 25th Percentile” value [2, 3] of the same molecule?
Answer: The value was −1.6.

Question: And the “Arthritis Self-Efficacy Scale Overall, Change from Baseline, 75th Percentile” value [2, 3]?
Answer: Its value is 26.0.

Question: And the “Arthritis Self-Efficacy Scale Overall, Change from Baseline, Maximum” value [2, 3]?
Answer: The value was 124.0.

Question: And the “Arthritis Self-Efficacy Scale Overall, Change from Baseline, Mean (SD)” value [2, 3]?
Answer: The value was 11.5 (29.3).

Question: What about the “Arthritis Self-Efficacy Scale Overall, Change from Baseline, Median” value [2, 3] of the same molecule?
Answer: The value was 12.0.

Question: What about the “Arthritis Self-Efficacy Scale Overall, Change from Baseline, Minimum” value [2, 3] of the same molecule?
Answer: The value was −74.0.

Question: And the “Arthritis Self-Efficacy Scale Overall, Observed Value, 25th Percentile” value [2, 3]?
Answer: The value was 103.0.

Question: What about the “Arthritis Self-Efficacy Scale Overall, Observed Value, 75th Percentile” value [2, 3] of the same molecule?
Answer: Its value is 162.5.

Question: And the “Arthritis Self-Efficacy Scale Overall, Observed Value, Maximum” value [2, 3]?
Answer: Its value is 189.0.

Question: And the “Arthritis Self-Efficacy Scale Overall, Observed Value, Mean (SD)” value [2, 3]?
Answer: The value was 130.9 (38.2).

Question: What about the “Arthritis Self-Efficacy Scale Overall, Observed Value, Median” value [2, 3] of the same molecule?
Answer: Its value is 132.6.

Question: What about the “Arthritis Self-Efficacy Scale Overall, Observed Value, Minimum” value [2, 3] of the same molecule?
Answer: The value was 27.0.

Question: What about the “Arthritis Self-Efficacy Scale Pain and Other Symptoms, Change from Baseline, 25th Percentile” value [2, 3] of the same molecule?
Answer: Its value is 1.0.

Question: What about the “Arthritis Self-Efficacy Scale Pain and Other Symptoms, Change from Baseline, 75th Percentile” value [2, 3] of the same molecule?
Answer: The value was 13.0.

Question: And the “Arthritis Self-Efficacy Scale Pain and Other Symptoms, Change from Baseline, Maximum” value [2, 3]?
Answer: Its value is 50.0.

Question: And the “Arthritis Self-Efficacy Scale Pain and Other Symptoms, Change from Baseline, Mean (SD)” value [2, 3]?
Answer: Its value is 6.9 (16.4).

Question: What about the “Arthritis Self-Efficacy Scale Pain and Other Symptoms, Change from Baseline, Median” value [2, 3] of the same molecule?
Answer: Its value is 6.0.

Question: And the “Arthritis Self-Efficacy Scale Pain and Other Symptoms, Change from Baseline, Minimum” value [2, 3]?
Answer: Its value is −46.0.

Question: What about the “Arthritis Self-Efficacy Scale Pain and Other Symptoms, Observed Value, 25th Percentile” value [2, 3] of the same molecule?
Answer: The value was 53.5.

Question: What about the “Arthritis Self-Efficacy Scale Pain and Other Symptoms, Observed Value, 75th Percentile” value [2, 3] of the same molecule?
Answer: The value was 86.0.

Question: What about the “Arthritis Self-Efficacy Scale Pain and Other Symptoms, Observed Value, Maximum” value [2, 3] of the same molecule?
Answer: Its value is 101.0.

Question: And the “Arthritis Self-Efficacy Scale Pain and Other Symptoms, Observed Value, Mean (SD)” value [2, 3]?
Answer: The value was 68.5 (21.1).

Question: What about the “Arthritis Self-Efficacy Scale Pain and Other Symptoms, Observed Value, Median” value [2, 3] of the same molecule?
Answer: Its value is 69.7.

Question: And the “Arthritis Self-Efficacy Scale Pain and Other Symptoms, Observed Value, Minimum” value [2, 3]?
Answer: Its value is 14.0.

Question: And the “Arthritis Self-Efficacy Scale Pain, Change from Baseline, 25th Percentile” value [2, 3]?
Answer: Its value is −1.0.

Question: What about the “Arthritis Self-Efficacy Scale Pain, Change from Baseline, 75th Percentile” value [2, 3] of the same molecule?
Answer: Its value is 10.5.

Question: And the “Arthritis Self-Efficacy Scale Pain, Change from Baseline, Maximum” value [2, 3]?
Answer: The value was 30.0.

Question: What about the “Arthritis Self-Efficacy Scale Pain, Change from Baseline, Mean (SD)” value [2, 3] of the same molecule?
Answer: Its value is 3.3 (10.5).

Question: And the “Arthritis Self-Efficacy Scale Pain, Change from Baseline, Median” value [2, 3]?
Answer: The value was 3.0.

Question: And the “Arthritis Self-Efficacy Scale Pain, Change from Baseline, Minimum” value [2, 3]?
Answer: The value was −37.0.

Question: And the “Arthritis Self-Efficacy Scale Pain, Observed Value, 25th Percentile” value [2, 3]?
Answer: Its value is 22.0.

Question: What about the “Arthritis Self-Efficacy Scale Pain, Observed Value, 75th Percentile” value [2, 3] of the same molecule?
Answer: The value was 38.0.

Question: What about the “Arthritis Self-Efficacy Scale Pain, Observed Value, Maximum” value [2, 3] of the same molecule?
Answer: The value was 50.0.

Question: And the “Arthritis Self-Efficacy Scale Pain, Observed Value, Median” value [2, 3]?
Answer: Its value is 28.0.

Question: What about the “Arthritis Self-Efficacy Scale Pain, Observed Value, Minimum” value [2, 3] of the same molecule?
Answer: Its value is 8.0.

Question: And the “Arthritis Self-Efficacy Scale Function, Change from Baseline, Least Squares Means (SE) [2]” value [2, 4]?
Answer: The value was 4.2 (1.7).

Question: What about the “Arthritis Self-Efficacy Scale Other Symptoms, Change from Baseline, Least Squares Means (SE) [2]” value [2, 4] of the same molecule?
Answer: The value was 3.4 (1.2).

Question: And the “Arthritis Self-Efficacy Scale Overall, Change from Baseline, Least Squares Means (SE) [2]” value [2, 4]?
Answer: The value was 10.4 (3.2).

Question: And the “Arthritis Self-Efficacy Scale Pain and Other Symptoms, Change from Baseline, Least Squares Means (SE) [2]” value [2, 4]?
Answer: The value was 6.6 (1.9).

Question: And the “Arthritis Self-Efficacy Scale Pain, Change from Baseline, Least Squares Means (SE) [2]” value [2, 4]?
Answer: The value was 3.1 (1.0).

Question: What about the “Arthritis Self-Efficacy Scale Function, Change from Baseline, 25th Percentile” value [2, 5] of the same molecule?
Answer: The value was −1.0.

Question: And the “Arthritis Self-Efficacy Scale Function, Change from Baseline, 75th Percentile” value [2, 5]?
Answer: The value was 14.0.

Question: And the “Arthritis Self-Efficacy Scale Function, Change from Baseline, Maximum” value [2, 5]?
Answer: Its value is 58.0.

Question: What about the “Arthritis Self-Efficacy Scale Function, Change from Baseline, Mean (SD)” value [2, 5] of the same molecule?
Answer: The value was 6.8 (15.6).
